Data on 10 compounds can be found in ChEMBL document CHEMBL1146540, “Bioactive constituents from three Vismia species” (2003).

Converted amounts (≈) assume the structure as drawn. The source made the active and inactive calls. The calls are words filed in the database; no cut-off is given here.

Format in all cases: functional
The test system of one experiment is NCI-H460. Briefly: Cytotoxicity against human H460 cells.
Another experiment relates to MCF7. Kind of experiment: Cytotoxicity against human MCF7 cells.
Another experiment deals with SF-268. Kind of experiment: Cytotoxicity against human SF268 cells.

Consider `COc1cc2c(c(O)c1/C=C/C(C)C)C(=O)c1c(O)cc(C)cc1C2=O`, for which the result in the experiment with NCI-H460, in the experiment on MCF7 and in the experiment with SF-268 was inactive.
Regarding `COc1cc2c(c(O)c1/C=C/C(C)C)C(=O)c1c(O)cc(C)cc1C2C1c2cc(C)cc(O)c2C(=O)c2c1cc(OC)c(/C=C/C(C)C)c2O` (stereo not given), the outcome in the experiment on NCI-H460, in the experiment with MCF7 and in the experiment on SF-268 was inactive.
In general, GI50 refers to the concentration at which growth is held to half of that of the control. With `COc1cc2cc3c(c(O)c2c(O)c1/C=C/C(C)C)C(=O)CC(C)(O)C3` (stereo not given) [DEACETYLVISMIONE A], the GI50 with NCI-H460 turned out to be 1.9 mg/L (≈ 5.33 µM); in the experiment with MCF7 it was 1.8 mg/L (≈ 5.05 µM); in the experiment with SF-268, 2.2 mg/L (≈ 6.17 µM).
Taken in the same sequence, the figures for `CC(C)=CCOc1cc(O)c2c(O)c3c(cc2c1)CC(C)(O)CC3=O` (stereo not given) [DEACETYLVISMIONE H] were 0.6 mg/L (≈ 1.75 µM), 0.4 mg/L (≈ 1.17 µM) and 0.6 mg/L (≈ 1.75 µM).
Take `CC(C)=CCc1c(C)cc2cc3c(c(O)c2c1O)C(=O)C=C(O)C3(CC=C(C)C)CC=C(C)C` [FERRUGININ A]: the GI50 turned out to be 3.3 mg/L (≈ 7.16 µM) in the experiment on NCI-H460, 5 mg/L (≈ 10.9 µM) in the experiment with MCF7 and 4.9 mg/L (≈ 10.6 µM) in the experiment on SF-268.
The like results for `CC(C)=CCC1=C(O)C(CC=C(C)C)(CC=C(C)C)c2cc3cc(C)cc(O)c3c(O)c2C1=O` [FERRUGININ B] were, in that order, 5 mg/L (≈ 10.9 µM), 5 mg/L (≈ 10.9 µM) and 4 mg/L (≈ 8.68 µM).
Taken in the same sequence, the figures for `CC(C)=CCC1=C(O)C(CC=C(C)C)(CC=C(C)C)c2cc3c(CC=C(C)C)c(C)cc(O)c3c(O)c2C1=O` [FERRUGININ C] were 5.4 mg/L (≈ 10.2 µM), 4.8 mg/L (≈ 9.08 µM) and 4 mg/L (≈ 7.57 µM).
The like results for `CC(C)=CCc1c(C)cc(O)c2c(O)c3c(cc12)C(CC=C(C)C)(CC=C(C)C)C(O)=CC3=O` [HARUNGANIN] were, in that order, 6.4 mg/L (≈ 13.9 µM), 6 mg/L (≈ 13 µM) and 6 mg/L (≈ 13 µM).
Regarding `CC(C)=CCC1(CC=C(C)C)C(O)=CC(=O)c2c1cc1cc(C)cc(O)c1c2O` [VISMIN], the figures for the GI50 in the experiment with NCI-H460, in the experiment with MCF7 and in the experiment on SF-268 were 7.3 mg/L (≈ 18.6 µM), 5.2 mg/L (≈ 13.2 µM) and 5.7 mg/L (≈ 14.5 µM), respectively.
In the case of `COc1cc2cc3c(c(O)c2c2c1C=CC(C)(C)O2)C(=O)CC(C)(O)C3` (stereo not given) [VISMIONE B], the GI50 in the experiment with NCI-H460 came to 2.8 mg/L (≈ 7.9 µM); in the experiment with MCF7, 1.6 mg/L (≈ 4.51 µM); in the experiment with SF-268 it was 2.5 mg/L (≈ 7.05 µM).
